# Reference: the RepoRT retention time repository
# Structures can show the parent of a compound that is named as a salt.
# Assay: HILIC, Merck SeQuant ZIC-HILIC, 25 °C, 0.25 mL/min; A: water + 16 mM ammonium formate; B: acetonitrile + 0.1% formic acid, pH 3; gradient (min/%B) 0/97 2/97 10/70 15/10 17/10 18/97 25/97
# Conditions: stereoisomer not certain
row,SMILES,LC retention time [min]
1,OCCNCCO [DIETHANOLAMINE],13.1
2,O=C(O)CCCCCCC(=O)O [SUBERATE],1.91
3,Cc1ncc(CO)c(CN)c1O [PYRIDOXAMINE],14.6
4,CC12CCC(=O)C=C1CCC1C2C(O)CC2(C)C(C(=O)CO)CCC12 (centres undefined) [CORTICOSTERONE],1.74
5,CC(=O)C1CCC2C3CCC4=CC(=O)CCC4(C)C3CCC12C (centres undefined) [Progesterone],1.58
6,O=C(O)c1cc(O)cc(O)c1 [3-5-Dihydroxybenzoic acid],8.46
7,Nc1ncnc2c1ncn2C1OC(COP(=O)(O)OP(=O)([O-])OCC2OC([n+]3cccc(C(=O)O)c3)C(O)C2O)C(O)C1OP(=O)(O)O (centres undefined) [NICOTINIC ACID ADENINE DINUCLEOTIDE PHOSPHATE],15.3
8,NC(CO)Cc1cnc[nH]1 (centres undefined) [HISTIDINOL],17
9,O=C(O)CCCCCCCCCO [10-HYDROXYDECANOATE],1.75
10,NC(=O)C1CCCN1C(=O)C(Cc1cnc[nH]1)NC(=O)C1CCC(=O)N1 (centres undefined) [THYROTROPIN RELEASING HORMONE],13.3
11,CSCC1OC(n2cnc3c(N)ncnc32)C(O)C1O (centres undefined) [METHYLTHIOADENOSINE],4.75
12,CCC(O)C(=O)[O-] (centres undefined) [2-HYDROXYBUTYRATE],2.1
13,CC(=O)c1ccc(O)cc1O [2'-4'-DIHYDROXYACETOPHENONE],1.72
14,CC12CCC3c4ccc(O)cc4CCC3C1CCC2O (stereo not drawn) [ESTRADIOL-17ALPHA],1.7
15,CC(=O)N[C@@H](Cc1ccc(O)cc1)C(=O)O [N-Acetyl-L-tyrosine],2.16
16,CC(CCC(=O)O)C1CCC2C3C(O)CC4CC(O)CCC4(C)C3CCC12C (centres undefined) [CHENODEOXYCHOLATE],1.85
17,Nc1ncnc2c1ncn2C1OC(CO)C(O)C1O (centres undefined) [ADENOSINE],8.64
18,CCCCCCCCCCCCCCCC(=O)OCC(O)COP(=O)(O)O (centres undefined) [16:0_LysoPA],9.22
19,O=C(O)C=Cc1cnc[nH]1 [UROCANATE],8.66
20,OCC1OC(OCC2OC(OCC3OC(OC4(CO)OC(CO)C(O)C4O)C(O)C(O)C3O)C(O)C(O)C2O)C(O)C(O)C1O (centres undefined) [STACHYOSE],15.1
21,NC(N)=NCC(=O)O [GUANIDINOACETATE],14
22,CC(C)(CCC(=O)O)C(=O)O [2-2-Dimethylglutaric acid],2.1
23,N[C@@H](CO)C(=O)O [L-Serine],14.2
24,C[N+](C)(C)CCOP(=O)(O)OP(=O)([O-])OCC1OC(n2ccc(N)nc2=O)C(O)C1O (centres undefined) [CITICOLINE],15.7
25,Nc1c(O)cccc1C(=O)O [3-HYDROXYANTHRANILATE],2.15

row,SMILES,LC retention time [min]
1,N[C@@H](Cc1cnc[nH]1)C(=O)O [L-Histidine],15.8
2,Cc1ncc(C[n+]2csc(CCO)c2C)c(N)n1 [THIAMINE],14.3
3,Cc1ncc(CO)c(CO)c1O [PYRIDOXINE],10.4
4,Cc1ncc(CO)c(C=O)c1O [PYRIDOXAL],8.23
5,COC(=O)CCCN [METHYL 4-AMINOBUTYRATE-CH2],13.4
6,Nc1ncccc1C(=O)O [2-Aminopyridine-3-carboxylic acid],8.8
7,O=C(O)c1ccc(O)c(O)c1 [3-4-DIHYDROXYBENZOATE],2.14
8,O=C(O)CCC(=O)O [succinic acid],2.19
9,O=C(O)CCCCCC(=O)O [pimelic acid],2.14
10,CC(=O)C(C)O (centres undefined) [ACETOIN],2.12
11,CCCCCCCCCCCCCCC=COCC(O)COP(=O)([O-])OCC[N+](C)(C)C (centres undefined) [C16_PlasmLPC],11.1
12,NC(=O)c1ncn(C2OC(COP(=O)(O)O)C(O)C2O)c1N (centres undefined) [AICAR],14.2
13,Cc1ccc(O)c(O)c1 [4-METHYLCATECHOL],1.84
14,O=C[O-] [FORMATE],2.79
15,CC(=O)NCCCNCCCCNCCCN [N1-ACETYLSPERMINE],19.9
16,OCC1OC(OC2OC(CO)C(O)C(O)C2O)C(O)C(O)C1O (centres undefined) [TREHALOSE],14.1
17,CNC(=O)c1cccnc1 [N methyl nicotinamide],2.15
18,CCCCCCCCCCCCCCCCCC(=O)O [STEARATE],1.56
19,CC(=O)NCC(=O)O [N-ACETYLGLYCINE],4.93
20,O=S(=O)(O)c1ccc(O)c(O)c1 [3-4-dihydroxybenzenesulfonic acid],12.8
21,Nc1nc2c(ncn2C2OC(COP(=O)(O)OP(=O)(O)O)C(O)C2O)c(=O)[nH]1 (centres undefined) [GUANOSINE DIPHOSPHATE],15.4
22,O=C1OC(C(O)CO)C(O)C1O [L-GULONOLACTONE],10.3
23,O=C(O)CO [GLYCOLATE],4
24,NC(=O)CC[C@H](N)C(=O)O [L-Glutamine],14.1
25,NCCS [CYSTEAMINE],16.9

row,SMILES,LC retention time [min]
1,CCCCCCCCCCCCCCCCCCOCC(O)COP(=O)([O-])OCC[N+](C)(C)C (centres undefined) [C18_LysoPAF],11.3
2,Nc1cc([O-])cc(C(=O)O)c1 [3-AMINO-5-HYDROXYBENZOATE],2.16
3,CC(=O)C1C(=O)C=C(C)OC1=O (centres undefined) [Dehydroacetic acid],1.56
4,OCC1OC(O)CC1O (centres undefined),13
5,O=P(O)(O)OC1OC(CO)C(O)C(O)C1O (centres undefined) [GALACTOSE 1-PHOSPHATE],14.7
6,O=C(O)c1cc[n+]([O-])cc1 [Isonicotinic acid N-oxide],9.7
7,Cc1ncc(CO)c(C(=O)O)c1O [4-PYRIDOXATE],2.22
8,CCCCCCCCC=CCCCCCCCC(=O)OCC(O)COP(=O)(O)OCCN (centres undefined) [18-1_LysoPE],10.3
9,CCCC(=O)[O-] [BUTANOATE],2.15
10,Nc1ccccc1O [2-AMINOPHENOL],2.11
11,CN1CC(=O)NC1=N [CREATININE],11.7
12,O=C1OC(C(O)CO)C(O)=C1O (centres undefined) [ASCORBATE],10.5
13,C=CC1=C(C)C(C=c2[nH]c(=Cc3[nH]c(C=C4NC(=O)C(C)=C4C=C)c(C)c3CCC(=O)O)c(CCC(=O)O)c2C)=NC1=O [BILIVERDIN],2.06
14,NCCCCN=C(N)N [AGMATINE SULFATE],17.2
15,NCC(N)C(=O)O (centres undefined) [2-3-DIAMINOPROPIONATE],16.1
16,Cc1cn(C2CC(O)C(COP(=O)(O)OP(=O)(O)OC3OC(CO)C(O)C(O)C3O)O2)c(=O)[nH]c1=O [DTDP-D-GLUCOSE],14.4
17,O=c1ccn(C2OC(CO)C(O)C2O)c(=O)[nH]1 (centres undefined) [URIDINE],9
18,O=C(O)C(O)CO (centres undefined) [GLYCERATE],8.39
19,NCCCC(=O)O [GAMMA-AMINOBUTYRATE],13.5
20,[NH3+]CC(=O)N1CCCC1C(=O)[O-] (centres undefined) [Gly-Pro],15
21,O=C(O)CC(Cc1ccccc1)C(=O)O (racemic) [dl-benzylsuccinic acid],2.15
22,CC1NCCc2cc(O)c(O)cc21 (centres undefined) [SALSOLINOL],11.1
23,O=C[C@H](O)[C@H](O)CO [D-(-)-Erythrose],8.22
24,O=C(O)c1cccnc1 [Nicotinic acid],2.81
25,NC(CCCC(N)C(=O)O)C(=O)O (centres undefined) [LL-2-6-DIAMINOHEPTANEDIOATE],15.4

row,SMILES,LC retention time [min]
1,NCCCCNCCCN [SPERMIDINE],19.5
2,CC(=O)N[C@@H]1[C@@H](O)[C@H](O)[C@@H](CO)O[C@H]1N [2-ACETAMIDO-2-DEOXY-BETA-D-GLUCOSYLAMINE],14.5
3,O=C(O)CNC(=O)c1ccccc1 [HIPPURATE],2.12
4,O=c1[nH]c(=O)c2ncn(C3OC(COP(=O)(O)O)C(O)C3O)c2[nH]1 (centres undefined) [XANTHOSINE-MONOPHOSPHATE],14.4
5,Cc1cc2nc3[nH]c(=O)[nH]c(=O)c3nc2cc1C [LUMICHROME],1.94
6,Cn1cnc2[nH]c(=O)[nH]c(=O)c21 [7-Methylxanthine],2.21
7,CCCCCCCCCCCCCCCC(=O)OCC(O)COP(=O)([O-])OCC[N+](C)(C)C (centres undefined) [16-0_LysoPC],11.2
8,CC(O)(CC(=O)O)C(=O)O (centres undefined) [CITRAMALATE],6.53
9,O=c1[nH]c(=O)c2ncn(C3OC(CO)C(O)C3O)c2[nH]1 (centres undefined) [XANTHOSINE],10.4
10,CC1OC(n2cnc3c(N)ncnc32)C(O)C1O (centres undefined) [5'-DEOXYADENOSINE],2.24
11,Nc1ccccc1C(=O)O [ANTHRANILATE],1.84
12,O=P(O)(O)OCC(O)CO (centres undefined) [GLYCEROL 3-PHOSPHATE],14.1
13,O=C(O)C(=O)Cc1ccccc1 [PHENYLPYRUVATE],2.18
14,NC(=O)c1ccc[n+](C2OC(COP(=O)([O-])O)C(O)C2O)c1 (centres undefined) [NICOTINAMIDE MONONUCLEOTIDE],14.7
15,CCCCCCCCCCCCCC(=O)OCC(O)COP(=O)([O-])OCC[N+](C)(C)C (centres undefined) [14-0_LysoPC],11.3
16,O=CC(O)CO (centres undefined) [GLYCERALDEHYDE],2.77
17,Cc1cn(C2CC(O)C(CO)O2)c(=O)[nH]c1=O (centres undefined) [THYMIDINE],2.17
18,O=c1[nH]cnc2nc[nH]c12 [HYPOXANTHINE],8.77
19,NC(=O)NC1NC(=O)NC1=O (centres undefined) [ALLANTOIN],11.2
20,O=C(O)C=CC(=O)O [fumaric acid],7.45
21,CC(=O)NC(CSSCC(NC(C)=O)C(=O)O)C(=O)O (centres undefined) [N-ACETYLCYSTEINE-dimere],13.2
22,NCC(O)CCC(N)C(=O)O (centres undefined) [5-HYDROXYLYSINE],16.2
23,CC(CCCC(C)(C)O)C1CCC2C3CC=C4CC(O)CCC4(C)C3CCC12C (centres undefined) [25-HYDROXYCHOLESTEROL],1.6
24,NC(CCOC(=O)CCC(=O)O)C(=O)O (centres undefined) [O-SUCCINYL-HOMOSERINE],13.3
